The results in this text go back to patent US8952014B2, “Pyrimidine derivatives which are CGRP—antagonists” (Boehringer Ingelheim International GmbH, priority 2008, dated 2015).

Usually Ki stands for the equilibrium dissociation constant of an inhibitor or competing ligand from its target. Higher therefore signals lower affinity.

For this assay, the target named is T1, human CGRP receptor (Homo sapiens, UniProt O60894+Q16602).
T1 construct: SK-N-MC membranes (˜20 μg protein) are incubated for 180 minutes at ambient temperature; endogenous in cells; host or cells: SK-N-MC cells (membranes)
T1 sequence (Q16602 23-461): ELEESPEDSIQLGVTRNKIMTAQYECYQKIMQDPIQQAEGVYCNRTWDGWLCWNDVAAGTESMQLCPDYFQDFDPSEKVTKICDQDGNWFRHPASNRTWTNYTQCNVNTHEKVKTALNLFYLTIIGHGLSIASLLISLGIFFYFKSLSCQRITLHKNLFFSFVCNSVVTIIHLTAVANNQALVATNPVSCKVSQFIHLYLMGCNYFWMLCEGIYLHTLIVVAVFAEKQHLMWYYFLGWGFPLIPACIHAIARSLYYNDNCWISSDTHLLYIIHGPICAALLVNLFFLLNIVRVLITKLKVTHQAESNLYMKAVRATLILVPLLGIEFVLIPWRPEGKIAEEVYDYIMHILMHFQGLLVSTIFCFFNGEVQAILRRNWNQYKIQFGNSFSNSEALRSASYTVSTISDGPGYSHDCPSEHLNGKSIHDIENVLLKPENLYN
T1 sequence (O60894 27-148): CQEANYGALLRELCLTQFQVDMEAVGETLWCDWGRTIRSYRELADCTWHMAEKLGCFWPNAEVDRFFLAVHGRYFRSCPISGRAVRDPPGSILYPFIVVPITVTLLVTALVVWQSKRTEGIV
Kind of assay: Binding studies with SK-N-MC cells (125I-CGRP displacement from membranes). The following applies: 50 pM 125I-iodotyrosyl-CGRP, 180 min, ambient temperature. As for the experimental part: A. Binding Studies with SK-N-MC Cells (Expressing the Human CGRP Receptor)
SK-N-MC membranes (˜20 μg protein) are incubated for 180 minutes at ambient temperature with 50 pM ^125I-iodotyrosyl-Calcitonin-Gene-Related Peptide and increasing concentrations of the test substances in a total volume of 250 μl (assay buffer: 10 mM tris, 50 mM NaCl, 5 mM MgCl2, 1 mM EDTA, pH=7.4). The incubation is ended by rapid filtration through GF/B-glass fibre filters treated with polyethyleneimine (0.1%) using a cell harvester. The protein-bound radioactivity is measured using a gamma counter. Non-specific binding is defined as the bound radioactivity after the presence of 1 μM BIBN4096BS during incubation.
The concentration binding curves are analysed using computer-aided non-linear curve fitting.
In turn, `COc1nc(Oc2cc(C)c3[nH]c(=O)oc3c2)cc(N2CCC3(CC2)OC(=O)Nc2ncccc23)n1` [(41)] displayed a Ki of 3 nM.
`O=C1Nc2ncccc2C2(CCN(c3cc(Oc4cc(Cl)c5[nH]c(C6CCOCC6)nc5c4)ncn3)CC2)O1` [(62)] had a Ki of 2 nM.
With `Cc1nc2cc(Nc3cc(N4CCC(n5c(=O)[nH]c6c7ccccc7ncc65)CC4)ncn3)cc(C)c2[nH]1` [(9)], the Ki turned out to be 37 nM.
`COc1ccc2c(c1)CCN(C1CCN(c3cc(Oc4cnc5ccccc5n4)ncn3)CC1)C(=O)N2` [(27)]: the inhibition constant Ki came out at 207 nM.
In the case of `COc1ccc2c(c1)CCN(C1CCN(c3cc(Oc4ccc(N)c(C)c4)ncn3)CC1)C(=O)N2` [(49)], affinity was put at a Ki of 154 nM.
The compound `Cc1cc(Nc2cc(N3CCC(n4c(=O)[nH]c5ncccc54)CC3)ncn2)cc2oc(=O)[nH]c12` [(6)] displayed a Ki of 4 nM.
On to `COc1ccc2c(c1)CCN(C1CCN(c3cc(Nc4cc(C)c5[nH]c(C)nc5c4)ncn3)CC1)C(=O)N2` [(8)], for which the Ki turned out to be 12 nM. Compared with the last compound, the Ki is about 3-fold higher.
In the case of `COCc1nc2c(C)cc(Oc3cc(N4CCC(N5CCc6cc(OC)ccc6NC5=O)CC4)ncn3)cc2[nH]1` [(38)], the Ki turned out to be 10 nM.
`Cc1ccc(Oc2cc(N3CCC(n4c(=O)[nH]c5ncccc54)CC3)ncn2)cc1C` [(4)] displayed a Ki of 175 nM. Compared with the last compound, the Ki is about 18-fold higher.
The result for `COc1ccc2c(c1)CCN(C1CCN(c3cc(Oc4cc(C)c5c(c4)OCC(=O)N5)ncn3)CC1)C(=O)N2` [(57)] reads 35 nM.
With `COc1ccc2c(c1)CCN(C1CCN(c3cc(Oc4cc(C)c5c(c4)oc(=O)n5C)ncn3)CC1)C(=O)N2` [(3)], affinity was put at a Ki of 23 nM.
The result for `Cc1cc(Oc2cc(N3CCC4(CC3)OC(=O)Nc3ncccc34)ncn2)cc2[nH]c([C@H]3CCCO3)nc12` [(70)] reads 5 nM; that for `COc1ccc2c(c1)CCN(C1CCN(c3cc(Oc4cc(C)c5[nH]c(=O)oc5c4)nc(C)n3)CC1)C(=O)N2` [(22)], 5 nM; that for `COc1ccc2c(c1)CCN(C1CCN(c3cc(Oc4cc(C)c5nc(C)[nH]c5c4)ncn3)CC1)C(=O)N2` [(29)], 3 nM.
As for `COc1ccc2c(c1)CCN(C1CCN(c3cc(Nc4cc(C)c5oc(C)nc5c4)ncn3)CC1)C(=O)N2` [(16)], the Ki was determined as 187 nM.
`O=C1Nc2ncccc2C2(CCN(c3cc(Oc4cc(Cl)c5[nH]c(C6CCOC6)nc5c4)ncn3)CC2)O1` (stereo not shown) [(61)]: the Ki was found to be 2 nM.
Compound `COc1ccc2c(c1)CCN(C1CCN(c3cc(Oc4ccc5[nH]c(=O)oc5c4)ncn3)CC1)C(=O)N2` [(47)] gave a Ki of 47 nM. This Ki lies about 24-fold higher than the previous one.
Under `COc1ccc2c(c1)CCN(C1CCN(c3cc(Oc4cc(C)c5nc(CC#N)[nH]c5c4)ncn3)CC1)C(=O)N2` [(28)] stands 4 nM; under `Cc1nc(Oc2cc(C)c3[nH]c(=O)oc3c2)cc(N2CCC3(CC2)CC(=O)Nc2ncccc23)n1` [(76)], 26 nM; under `Cc1cc(Oc2cc(N3CCC4(CC3)OC(=O)Nc3ncccc34)ncn2)cc2nc([C@H]3CCOC3)[nH]c12` [(60)], 2 nM.
On to `COc1ccc2c(c1)CCN(C1CCN(c3cc(Sc4cc(C)c5[nH]c(=O)oc5c4)ncn3)CC1)C(=O)N2` [(21)], for which the Ki was found to be 2 nM.
In turn, `COc1ccc2c(c1)CCN(C1CCN(c3cc(Oc4cc(C)c5nc(CC(F)(F)F)[nH]c5c4)ncn3)CC1)C(=O)N2` [(35)] showed a Ki of 16 nM.
`Cc1nc2cc(Nc3cc(Nc4ccc5c(c4)CC4(C5)C(=O)Nc5ncccc54)ncn3)cc(C)c2[nH]1` (stereo not shown) [(19)]: the Ki is 241 nM.
Under `Cc1cc(Oc2cc(N3CCC4(CC3)OC(=O)Nc3ncccc34)nc(C(F)(F)F)n2)cc2oc(=O)[nH]c12` [(74)] stands 29 nM; under `COc1ccc2c(c1)CCN(C1CCN(c3cc(Oc4ccc5[nH]c(C)nc5c4)ncn3)CC1)C(=O)N2` [(55)], 89 nM.
The compound `COc1ccc2c(c1)CCN(C1CCN(c3cc(Oc4cc(C)c5[nH]c(=O)oc5c4)nc(C4CC4)n3)CC1)C(=O)N2` [(45)] registered a Ki of 81 nM. The Ki values of the last two compounds are within 1.5-fold of each other.
`COc1ccc2c(c1)CCN(C1CCN(c3cc(Oc4cc(C)c5[nH]c(=O)sc5c4)ncn3)CC1)C(=O)N2` [(72)] showed a Ki of 3 nM.
With `Cc1cc(Nc2cc(Nc3ccc4c(c3)CC3(C4)C(=O)Nc4ncccc43)ncn2)cc2oc(=O)[nH]c12` (stereo not shown) [(18)], the affinity corresponds to a Ki of 227 nM.
For the compound `COc1ccc2c(c1)CCN(C1CCN(c3cc(S(=O)(=O)c4cc(C)c5[nH]c(=O)oc5c4)ncn3)CC1)C(=O)N2` [(26)], the Ki was 45 nM. Compared with the last compound, the Ki is about 5-fold lower.
For the compound `COc1ccc2c(c1)CCN(C1CCN(c3cc(Oc4cc(C)c5nc[nH]c5c4)ncn3)CC1)C(=O)N2` [(32)], the Ki is 15 nM.
`COCc1nc2cc(Oc3cc(N4CCC5(CC4)OC(=O)Nc4ncccc45)ncn3)cc(C)c2[nH]1` [(39)]: the Ki was 7 nM. Against the preceding compound, the Ki is about 2.1-fold lower.
The result for `Cc1cc(Oc2cc(N3CCC(n4c(=O)[nH]c5ncccc54)CC3)ncn2)cc2oc(=O)n(C)c12` [(2)] reads 20 nM; that for `Cc1cc(Oc2cc(N3CCC(n4c(=O)[nH]c5ncccc54)CC3)ncn2)cc2[nH]c(C3CC3)nc12` [(43)], 6 nM.
Take `COc1ccc2c(c1)CCN(C1CCN(c3cc([S+]([O-])c4cc(C)c5[nH]c(=O)oc5c4)ncn3)CC1)C(=O)N2` (stereo not shown) [(25)]: the affinity corresponds to a Ki of 18 nM.
Take `Cc1cc(Oc2cc(N3CCC4(CC3)OC(=O)Nc3ncccc34)ncn2)cc2[nH]c(C3CC3)nc12` [(44)]: the affinity, expressed as Ki, was 1 nM. Compared with the last compound, the Ki is about 18-fold lower.
Consider `COc1ccc2c(c1)CCN(C1CCN(c3cc(Nc4cc(C)c5[nH]ncc5c4)ncn3)CC1)C(=O)N2` [(11)], for which affinity was put at a Ki of 54 nM.
Compound `Cc1nc2c(C)cc(Oc3cc(N4CCC(n5c(=O)[nH]c6ncccc65)CC4)ncn3)cc2[nH]1` [(34)] displayed a Ki of 18 nM.
Compound `COc1ccc2c(c1)CCN(C1CCN(c3cc(Nc4cc(C)c5c(c4)oc(=O)n5C)ncn3)CC1)C(=O)N2` [(10)] came in with an inhibition constant (Ki) of 49 nM.
On to `COc1ccc2c(c1)CCN(C1CCN(c3cc(Oc4cc(C)c5nc([C@@H]6CCCO6)[nH]c5c4)ncn3)CC1)C(=O)N2` [(53)], for which the Ki stood at 5 nM.
For the compound `COc1ccc2c(c1)CCN(C1CCN(c3cc(Oc4cc(C)c5[nH]c(=O)oc5c4)cc[n+]3[O-])CC1)C(=O)N2` [(80)], affinity was put at a Ki of 11 nM.
The result for `COc1ccc2c(c1)CCN(C1CCN(c3cc(Oc4cc(C)nc5ccccc45)ncn3)CC1)C(=O)N2` [(31)] reads 129 nM.
`Cc1cc(Oc2cc(N3CCC4(CC3)OC(=O)Nc3ncccc34)ncn2)cc2nc(C3CCOCC3)[nH]c12` [(65)] came in with a Ki of 3 nM.
In turn, `Cc1cc(Oc2cc(N3CCC4(CC3)OC(=O)Nc3ncccc34)ncn2)cc2sc(=O)[nH]c12` [(64)] yielded a Ki of 2 nM.
With `Cc1nc(Oc2cc(C)c3[nH]c(=O)oc3c2)cc(N2CCC3(CC2)OC(=O)Nc2ncccc23)n1` [(71)], the Ki stood at 8 nM. Against the preceding compound, the Ki is about 4-fold higher.
`Cc1cc(Oc2cc(N3CCC(n4c(=O)[nH]c5ncccc54)CC3)ncn2)cc2oc(=O)[nH]c12` [(5)] registered a Ki of 3 nM.
Turning to `Cc1cc(Oc2cc(N3CCC4(CC3)OC(=O)Nc3ncccc34)ncn2)cc2nc(C(F)(F)F)[nH]c12` [(63)], the affinity, expressed as Ki, was 2 nM. This Ki lies about 1.5-fold lower than the previous one.
`Cc1nc2cc(Nc3cc(N4CCC(n5c(=O)[nH]c6ncccc65)CC4)ncn3)cc(C)c2o1` [(20)] registered a Ki of 481 nM.
As for `COc1ccc2c(c1)CCN(C1CCN(c3cc(Nc4cc(C)c5c(c4)nc(C)n5C)ncn3)CC1)C(=O)N2` [(12)], affinity was put at a Ki of 61 nM. This Ki is about 7.9-fold lower than that of the compound before.
Compound `Cc1nc(Nc2cc(C)c3[nH]c(=O)oc3c2)cc(N2CCC(n3c(=O)[nH]c4ncccc43)CC2)n1` [(24)] had a Ki of 3 nM. This Ki lies about 20-fold lower than the previous one.
In turn, `Cc1nc2cc(Nc3cc(N4CCC(n5c(=O)[nH]c6ncccc65)CC4)ncn3)cc(C)c2[nH]1` [(13)] came in with a Ki of 68 nM.
For the compound `COc1ccc2c(c1)CCN(C1CCN(c3nc(Cl)cc(Oc4cc(C)c5[nH]c(=O)oc5c4)n3)CC1)C(=O)N2` [(46)], affinity was put at a Ki of 194 nM.
Under `COc1ccc2c(c1)CCN(C1CCN(c3cc(Nc4cc(C)c(O)c(C)c4)ncn3)CC1)C(=O)N2` [(17)] stands 198 nM; under `Cc1cc(Oc2cc(N3CCC4(CC3)OC(=O)Nc3ncccc34)ncn2)cc2oc(=O)[nH]c12` [(23)], 1 nM; under `COc1ccc2c(c1)CCN(C1CCN(c3cc(Oc4cc(C)nc(C)c4)ncn3)CC1)C(=O)N2` [(36)], 61 nM.
`COc1ccc2c(c1)CCN(C1CCN(c3cc(N(C(C)=O)c4cc(C)c5c(c4)oc(=O)n5C)ncn3)CC1)C(=O)N2` [(15)] returned an inhibition constant Ki of 102 nM.
The result for `COc1ccc2c(c1)CCN(C1CCN(c3cc(Oc4ccc5[nH]c(C)nc5c4Cl)ncn3)CC1)C(=O)N2` [(56)] reads 29 nM; that for `Cc1cc(Oc2cc(N3CCC4(CC3)OC(=O)Nc3ncccc34)ncn2)cc2nc([C@@H]3CCOC3)[nH]c12` [(59)], 2 nM.
As to `Cc1nc2cc(Oc3cc(N4CCC5(CC4)OC(=O)Nc4ncccc45)ncn3)cc(Cl)c2[nH]1` [(51)], the Ki came to 3 nM.
`Cc1cc(Nc2cc(N3CCC(n4c(=O)[nH]c5ncccc54)CC3)ncn2)cc2oc(=O)n(C)c12` [(14)]: the inhibition constant (Ki) came to 81 nM. Compared with the last compound, the Ki is about 27-fold higher.
The result for `COc1ccc2c(c1)CCN(C1CCN(c3cc(Oc4ccc(NC(C)=O)c(C)c4)ncn3)CC1)C(=O)N2` [(48)] reads 96 nM.
Consider `COc1ccc2c(c1)CCN(C1CCN(c3cc(Oc4cc(C)c5nc(C6CC6)[nH]c5c4)ncn3)CC1)C(=O)N2` [(42)], for which the inhibition constant Ki amounted to 2 nM.
The compound `COc1ccc2c(c1)CCN(C1CCN(c3cc(Oc4cc(C)c5nc(C6CCOC6)[nH]c5c4)ncn3)CC1)C(=O)N2` (stereo not shown) [(73)] showed an inhibition constant Ki of 3 nM.
In the case of `COc1ccc2c(c1)CCN(C1CCN(c3cc(Oc4cc(C)c5[nH]c(=O)oc5c4)nc(N)n3)CC1)C(=O)N2` [(37)], affinity was put at a Ki of 65 nM. Against the preceding compound, the Ki is about 22-fold higher.
`Cc1cc(Oc2cc(N3CCC4(CC3)OC(=O)Nc3ncccc34)ncc2C#N)cc2oc(=O)[nH]c12` [(75)] came in with a Ki of 23 nM.
